From patent US9326989B2, “Oleyl phosphocholine” (Max-Planck-Gesellschaft zur Foerderung der Wissenschaften …, priority 2007, dated 2016)

Assays:
[1] = renal values (creatinine) in long-term applications; assay type: in vivo; settings: long-term applications over several months, therapeutically effective dosages
Excerpt: Oleyl phosphocholine is the first alkyl phosphocholine which can be used orally and intravenously.

[2] = stability in injection or infusion solutions or tablets; assay type: physicochemical; settings: 30° C.
Excerpt: For use in veterinary medicine, it is also useful that mixtures of oleyl phosphocholine (90%) and hexadecyl phosphocholine (10%) can be used and can be made available extremely inexpensively from olive oil.

[3] = animal experiments
canine leishmaniasis = assay: dosage range (start of activity to start of toxicity) in dog; assay type: in vivo; settings: higher doses not tolerated, lower doses almost ineffective

SMILES | renal values (increase in creatinine) [1] | stability [2] | therapeutic action compared to C18-PC (octadecyl) and C18:1(trans)-PC (elaidyl) [3] | dose at which activity against canine leishmaniasis started (canine leishmaniasis)
CCCCCCCC/C=C\CCCCCCCCOP(=O)([O-])OCC[N+](C)(C)C [OlPC, oleyl phosphocholine] | no deterioration in the renal values | can be guaranteed over a longer period | markedly superior | 
CCCCCCCCCCCCCCCCOP(=O)([O-])OCC[N+](C)(C)C [HePC, hexadecyl phosphocholine] |  |  |  | 3 mg per kg body weight per day
